Results from ChEMBL document CHEMBL1687723, “Effects of zidovudine and stavudine on mitochondrial DNA of differentiating 3T3-F442a cells are not associated with imbalanced deoxynucleotide pools” (Antimicrob Agents Chemother, 2009).

Experiments:
[1] = Cytotoxicity against differentiated mouse 3T3-F442A cells assessed as depletion of mitochondrial DNA level at 1 uM by real-time PCR; assay type: cell-based
[2] = Cytotoxicity against differentiated mouse 3T3-F442A cells assessed as depletion of mitochondrial DNA level at 10 uM by real-time PCR; assay type: cell-based
[3] = Cytotoxicity against differentiated mouse 3T3-F442A cells assessed as effect on total deoxynucleotides content at 10 uM after 2 to 10 days; assay type: cell-based
[4] = Cytotoxicity against differentiated mouse 3T3-F442A cells assessed as effect on total deoxynucleotides content at 1 uM after 2 to 10 days; assay type: cell-based
[5] = Cytotoxicity against differentiated mouse 3T3-F442A cells assessed as increase in total deoxynucleotides content at 10 uM after 2 to 10 days; assay type: cell-based
[6] = Cytotoxicity against differentiated mouse 3T3-F442A cells assessed as increase in TTP content after 10 days; assay type: cell-based; conditions: 240 h
[7] = Increase in mitochondrial DNA level in differentiated mouse 3T3-F442A cells at 10 uM by real-time PCR; assay type: ADME
[8] = Increase in mitochondrial DNA level in differentiated mouse 3T3-F442A cells at 1 uM by real-time PCR; assay type: ADME

In the case of `Cc1cn([C@H]2C=C[C@@H](CO)O2)c(=O)[nH]c1=O` [STAVUDINE], the Activity [1] was “Non-toxic”, the Activity [2] was “Toxic” and the Activity [3] was “Non-toxic”. For the same compound, the Activity [4] was “Non-toxic” and the Activity [5] was “Toxic”.
For `Cc1cn([C@H]2C[C@H](N=[N+]=[N-])[C@@H](CO)O2)c(=O)[nH]c1=O` [ZIDOVUDINE], the Activity [6] was 35%, the Activity [3] was “Non-toxic” and the Activity [4] was “Non-toxic”. For the same compound, the Activity [7] was “Non-toxic” and the Activity [8] was “Non-toxic”.
